From PubChem BioAssay AID2286 (Southern Research Specialized Biocontainment Screening …, 2010)
Calls of active or inactive are those of the source.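 The calls were made as follows: active = minimum cell viability of 80% or lower across the dose range, counted as toxic; inactive = minimum cell viability above 80%.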

Assay: viability loss in fusion assay cells – cell-based, MAGI and MAGI-HeLa co-culture, cytotoxicity control for HIV-1 fusion inhibitor project, dose response (AID 2286);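 also: cells exposed to compound for at least 64 h before ATP readout; 100% = median of DMSO vehicle wells with no ATP signal meaning 0%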
Conditions: MAGI-CCR5 cells viability, CellTiter-Glo ATP luminescence; for minimum viability: measured here: MAGI minimum viability across doses
[1] = MAGI-HeLa co-culture viability, at 50 µM, stronger effect = lower value
[2] = at 1.56 µM, stronger effect = lower value
[3] = at 12.5 µM, stronger effect = lower value
[4] = at 6.25 µM, stronger effect = lower value

| SMILES | viability [1] | viability (at 50 µM (top of the series)) | minimum viability (at 50 µM, stronger effect = lower value) | also measured |
| --- | --- | --- | --- | --- |
| COc1ccc(N2C(=O)/C(=C/c3ccco3)C(=O)NC2=S)cc1 | 86.3% | 100% (inactive) | – | minimum viability [2]: 84.8% |
| O=C(CN1C(=O)S/C(=C\C=C\c2ccccc2)C1=O)Nc1ccccc1C(=O)O | 103% | 90.4% (inactive) | – | minimum viability [3]: 83.6% |
| O=C(CSc1nc2ccccc2c(=O)n1Cc1ccccc1)Nc1ccc(Br)cc1C(=O)O | 96.5% | 87.7% (inactive) | – | minimum viability (at 25 µM, stronger effect = lower value): 81.4% |
| CCOc1cc(/C=C2/C(=N)N3C(=NC2=O)SN=C3S(=O)(=O)C(C)C)ccc1OC(=O)c1ccco1 | 103% | 91.5% (inactive) | – | minimum viability [3]: 86.8% |
| O=c1[nH]c(=S)[nH]c2c1C(c1ccc(Br)cc1)c1c([nH]c(=S)[nH]c1=O)O2 | 116% | 91.7% (inactive) | – | minimum viability [3]: 82.5% |
| CCc1nnc(NS(=O)(=O)c2ccc(NC(=S)NC(=O)/C=C/c3ccc(C(C)C)cc3)cc2)s1 | 117% | 82.2% (inactive) | 82.2% | – |
| CC(C)S(=O)(=O)C1=NSC2=NC(=O)/C(=C\c3ccc(-c4ccccc4)o3)C(=N)N21 | 123% | – | 73.2% | – |
| CCc1nnc(NS(=O)(=O)c2ccc(N/C=C(\C=O)c3nc4cc(Cl)ccc4o3)cc2)s1 | 99.2% | 90.2% (inactive) | – | minimum viability [3]: 84.6% |
| Cc1cc(N2C(=O)C(O)=C(C(=O)c3cc4ccccc4o3)C2c2cccc(Br)c2)no1 (centres undefined) | 137% | 87.1% (inactive) | – | minimum viability (at 25 µM, stronger effect = lower value): 86.4% |
| CC(Oc1ccc(Cl)cc1Cl)C(=O)Nc1ccc(S(=O)(=O)Nc2cnc3ccccc3n2)cc1 (centres undefined) | 96.5% | – | 66.7% | – |
| Cc1c(Cl)cccc1NS(=O)(=O)c1ccc2c(c1)C1C=CCC1C(c1ccc(C(=O)O)cc1)N2 (centres undefined) | 121% | 91% (inactive) | – | minimum viability [2]: 87% |
| COC(=O)c1sc(-c2ccc(C(C)(C)C)cc2)cc1NC(=O)c1ccccc1C(=O)O | 111% | – | 73.7% | – |
| O=C1NN(c2ccc(Cl)c(Cl)c2)C(=O)/C1=C/c1cccc(OC(=O)c2cccs2)c1 | 111% | 90.3% (inactive) | – | minimum viability (at 25 µM, stronger effect = lower value): 86.1% |
| CCOC(=O)c1c(N2C(=O)Nc3cc(Cl)c(Cl)cc3N2O)sc2c1CCCCC2 | 98.1% | – | 70.1% | – |
| O=C(O)CCN1C(=O)/C(=C\c2cccc(Oc3ccccc3)c2)SC1=S | 90.5% | 87.3% (inactive) | – | minimum viability (at 25 µM, stronger effect = lower value): 86.3% |
| Cc1ccc(NC(=O)COc2cccc(/C=C3\SC(=S)N(CCC(=O)O)C3=O)c2)cc1Cl | 94% | – | 77% | – |
| N=C1/C(=C/c2ccc(-c3cccc(C(=O)O)c3)o2)C(=O)N=C2SC=C(c3ccccc3)N12 | 104% | 85.3% (inactive) | 85.3% | – |
| O=C(NCCc1ccccc1)c1ccc2c(=O)[nH]c3c(C(=O)NCC4CCCO4)sc(=S)n3c2c1 (centres undefined) | 115% | – | 70.9% | – |
| Cc1cccc(OCC(=O)Nc2ccc(C(=O)Nc3ccccc3C(=O)O)cc2)c1C | 93% | – | 76.6% | – |
| O=C(N/N=C/c1c(O)n(C2CCCCC2)c(=S)[nH]c1=O)c1ccccc1O | 84.7% | – | 64.3% | – |
| CCc1ccc(N=C2NC(=O)/C(=C/c3cc(Br)c(OCC(=O)O)c(OC)c3)S2)cc1 | 94.3% | 82.9% (inactive) | 82.9% | – |
| CCCCCOc1ccc(C2C(C(=O)c3ccc(C)o3)=C(O)C(=O)N2c2cc(C)on2)cc1 (centres undefined) | 113% | 85.1% (inactive) | – | minimum viability (at 25 µM, stronger effect = lower value): 84.6% |
| CC(C)NC(=O)c1sc(=S)n2c1[nH]c(=O)c1ccc(C(=O)NCCc3ccc(Cl)cc3)cc12 | 104% | – | 55.2% | – |
| O=C(O)COc1ccccc1/C=N/NC(=O)CSc1nnc(SCc2cccc3ccccc23)s1 | 106% | 92.5% (inactive) | – | minimum viability [4]: 86.9% |
| CCCOc1ccc(C2C(C(=O)c3cc4ccccc4o3)=C(O)C(=O)N2c2cc(C)on2)cc1 (centres undefined) | 97.9% | – | 67.9% | – |
| O=C(O)CN1C(=O)/C(=C\c2cc(Br)ccc2OCc2ccccc2F)SC1=S | 113% | 101% (inactive) | 101% | – |
| NS(=O)(=O)c1cc(C(=O)NC2CCSc3ccccc32)ccc1Cl (centres undefined) | 103% | 84.3% (inactive) | 84.3% | – |

| SMILES | viability [1] | viability (at 50 µM (top of the series)) | minimum viability (at 50 µM, stronger effect = lower value) | also measured |
| --- | --- | --- | --- | --- |
| COc1ccc(OC)c(/C=C2\SC(=S)N(NS(=O)(=O)c3ccc(C)cc3)C2=O)c1 | 107% | 101% (inactive) | – | minimum viability [2]: 90.5% |
| COc1cc(/C=C2\C(=N)N3N=C(S(C)(=O)=O)SC3=NC2=O)ccc1OC(=O)c1ccco1 | 102% | 101% (inactive) | – | minimum viability [2]: 87.6% |
| O=C1NN(c2ccc(Cl)cc2)C(=O)/C1=C\c1ccc(-c2cccc(C(=O)O)c2)o1 | 81.8% | 83.3% (inactive) | 83.3% | – |
| O=C(O)C(c1ccccc1)N1C(=O)/C(=C\c2ccc(O)c(O)c2)SC1=S (centres undefined) | 95.1% | 105% (inactive) | – | minimum viability [3]: 99.2% |
| O=C(CCCN1C(=O)/C(=C/c2cccs2)SC1=S)Nc1ccc(O)c(C(=O)O)c1 | 106% | – | 62.3% | – |
| COc1ccc(C(=O)Nc2ccccc2C(=O)O)cc1NC(=O)C(c1ccccc1)c1ccccc1 | 116% | 99.7% (inactive) | – | minimum viability [4]: 89.1% |
| COc1cc(NS(=O)(=O)c2ccc(NC(=S)NC(=O)c3sc4ccccc4c3Cl)cc2)nc(OC)n1 | 105% | – | 76.8% | – |
| O=C(O)c1[nH]c2ccccc2c1C(c1cccc(O)c1)c1c(C(=O)O)[nH]c2ccccc12 | 95.1% | 91.2% (inactive) | – | minimum viability [4]: 86.4% |
| O=C(CN1C(=O)/C(=C2\SC(=S)N(CCS(=O)(=O)O)C2=O)c2ccccc21)Nc1cccc(Br)c1 | 113% | 83.3% (inactive) | 83.3% | – |
| COc1ccccc1NS(=O)(=O)c1cccc(-n2c(O)c(C=Nc3ccccc3C(=O)O)c3ccccc3c2=O)c1 | 111% | – | 51.4% | – |
| COc1ccc(NS(=O)(=O)c2ccc3c(c2)[C@H]2C=CC[C@H]2[C@@H](c2ccc(C(=O)O)cc2)N3)cc1 | 130% | 99.7% (inactive) | – | minimum viability (at 3.13 µM, stronger effect = lower value): 95.3% |
| CCOc1ccc(C2C(C(=O)Nc3ccccc3)=C(C)N=c3s/c(=C/c4cccc(OCC(=O)O)c4)c(=O)n32)cc1 (centres undefined) | 94.8% | 96.2% (inactive) | – | minimum viability [2]: 87.8% |
| N#Cc1c(-c2ccccc2)nc(SCc2ccc(Cl)cc2)[nH]c1=O | 113% | 86.1% (inactive) | 86.1% | – |
| COc1cc(/C=C2/SC(=S)N(CC(=O)O)C2=O)ccc1OCC(=O)Nc1ccc(C)c(C)c1 | 107% | 103% (inactive) | – | minimum viability (at 0.2 µM, stronger effect = lower value): 98.9% |
| CCCOc1ccc(C(=O)NNC(=S)NC(=O)c2cc(-c3ccccc3)nc3ccccc23)cc1 | 112% | 105% (inactive) | – | minimum viability (at 25 µM, stronger effect = lower value): 99% |
| COc1ccc(-c2csc(NC(=O)CSc3nc(C)nc4sc(C(=O)O)c(C)c34)n2)cc1 | 109% | 99.7% (inactive) | – | minimum viability [2]: 83.4% |
| COc1ccc(/C=N/NC(=O)c2[nH]c3ccc(Br)cc3c2-c2ccccc2)c(C(=O)O)c1OC | 95% | 90.4% (inactive) | 90.4% | – |
| COc1cc(/C=C2\C(=N)N3N=C(S(C)(=O)=O)SC3=NC2=O)cc(OC)c1OCCOc1ccc(C)cc1 | 111% | 101% (inactive) | – | minimum viability (at 25 µM, stronger effect = lower value): 98.3% |
| C=CCOC(=O)C1=C(C)N=c2s/c(=C3\C(=O)N(CC(=O)O)c4ccccc43)c(=O)n2C1c1ccc(OC)cc1 (centres undefined) | 105% | 97.3% (inactive) | – | minimum viability (at 25 µM, stronger effect = lower value): 85.1% |
| COc1ccc(N=C2S/C(=C\c3ccc(OC(C)C(=O)O)c(OC)c3)C(=O)N2CCc2c[nH]c3ccccc23)cc1 (centres undefined) | 148% | – | 70.5% | – |
| O=C(O)CN1C(=O)/C(=C\c2cccc(OCc3ccc(Cl)cc3)c2)SC1=S | 98.9% | 83.6% (inactive) | 83.6% | – |
| COC(=O)c1sc(-c2ccc(C(C)(C)C)cc2)cc1NC(=O)COCC(=O)O | 89% | – | 74.5% | – |
| O=c1oc2ccccc2c(O)c1C(c1ccc([N+](=O)[O-])cc1)c1c(O)c2ccccc2oc1=O | 133% | – | 68.8% | – |
| O=C(CCN1C(=O)/C(=C/c2ccccc2Cl)SC1=S)Nc1ccccc1C(=O)O | 109% | 98.3% (inactive) | – | minimum viability (at 0.78 µM, stronger effect = lower value): 87.5% |
| O=C1NN(c2ccc(F)c(Cl)c2)C(=O)/C1=C\c1cccc(OC(=O)c2cccs2)c1 | 111% | 92.7% (inactive) | 92.7% | – |
| O=C(CCN1C(=O)/C(=C/c2cccs2)SC1=S)Nc1ccc(C(=O)O)c(O)c1 | 104% | – | 66% | – |
| Cc1c(CCC(=O)O)c(=O)oc2c(C)c3occ(-c4ccc(Cl)cc4)c3cc12 | 117% | – | – | minimum viability (at 25 µM, stronger effect = lower value): 64% |
